Like-named read-outs stand apart in the source and are kept apart here.

The test system of one assay is GP2D cells. Put plainly: Cell proliferation assay (CellTiter-Glo), K-Ras G12D cells. The format is cell-based. Conditions: read-out: Inhibition of GP2D Cells (IC50). On the procedure: ASPC-1 (ATCC CRL-1682), Panc-10.05 (ATCC CRL-2547), A427, and GP2D (Sigma 95090714) cell lines comprise a G12D mutation and can be used to assess Ras cellular signaling in vitro, e.g., in response to the compounds herein. […] ASPC-1 culture medium is prepared with RPMI-1640 and 10% heat-inactivated FBS. Panc-10.05 culture medium is prepared with RPMI-1640, 10 Units/ml human recombinant insulin, and 10% FBS. A427 cell culture is prepared with RPMI-1640 and 10% heat-inactivated FBS. GP2D culture medium is prepared with DMEM with 2mM glutamine and 10% heat-inactivated FBS. A Cell Titer-Glo (CTG) luminescent based assay (Promega) is used to assess growth of the cells, as a measurement of the ability of the compounds herein to inhibit Ras signaling in the cells. The cells (e.g., 800 per well) are seeded in their respective culture medium in standard tissue culture-treated 384-well format plates (Falcon #08-772-116) or ultra-low attachment surface 384-well format plates (S-Bio # MS-9384UZ ). The day after plating, cells are treated with a dilution series (e.g., a 9 point 3-fold dilution series) of the compounds herein (e.g., approximately 40 µl final volume per well). Cell viability can be monitored (e.g., approximately 5 days later) according to the manufacturer's recommended instructions, where the CellTiter-Glo reagent is added (e.g., approximately 10 µl), vigorously mixed, covered, and placed on a plate shaker (e.g., approximately for 20 min) to ensure sufficient cell lysis prior to assessment of luminescent signal. The IC50 values are determined using the four parameter fit. The resulting IC50 value is a measurement of the ability of the compounds herein to reduce cell growth of Ras-driven cells (e.g., tumor cell lines) in vitro and/or in vivo.
(ATP-based viability assays read luminescence as a measure of living cells.)

The target in another assay is T1, K-Ras G12S (Homo sapiens, UniProt P01116, G12S).
T1 construct: made in house; host or cells: E. coli (e.g., BL21 (DE3))
The assay is described as follows: HTRF assay of the K-Ras / SOS1 interaction. The format is biochemical. To be noted: IC50 (against K-Ras G12D) to IC50 (against K-Ras G12S). An excerpt:
This assay can be also used to assess a selective inhibition or reduction of signaling output of a mutant Ras protein relative to a wildtype, or relative to a different mutant Ras protein. For example, the equilibrium interaction of wildtype Kras or K-Ras mutant (e.g., wildtype or a mutant thereof including those mentioned in Example 6) with SOS1 (e.g., hSOS1) can be assessed as a proxy or an indication for a subject compound's ability to bind and inhibit Ras protein. HTRF assay detects from (i) a fluorescence resonance energy transfer (FRET) donor (e.g., antiGST-Europium) that is bound to GST-tagged K-Ras mutant to (ii) a FRET acceptor (e.g., anti-6His-XL665) bound to a His-tagged hSOS 1.
The assay buffer can contain ~5 mM HEPES pH 7.4, -150 mM NaCI, - 1 mM DTT, 0.05% BSA and 0.0025% (v/v) Igepal. A Ras working solution is prepared in an assay buffer containing typically a suitable amount of the protein construct (e.g., GST-tagged K-Ras mutant) and the FRET donor (e.g., antiGST-Eu(K) from Cisbio, France). A SOS1 working solution is prepared in an assay buffer containing suitable amount of the protein construct (e.g., His-hSOS1) and the FRET acceptor (e.g., anti-6His-XL665 from Cisbio, France). A suitable amount of the protein construct will depend on the range of activity or range of IC50 values being detected or under investigation. For detecting IC50 within a range of 500 nM, the protein constructs of the same range of molarity can be utilized.
A fixed volume of DMSO with or without test compound is transferred into a 384-well plate. Ras working solution is added to all wells of the test plate. SOS1 working solution is added to all wells except for those that are subsequently filled the inhibitor control solution. Upon incubation for about 10 minutes or longer, the fluorescence is measured with a M1000Pro plate reader (Tecan) using HTRF detection (excitation 337nm, emission 1 : 620nm, emission 2: 665nm). Compounds are tested in duplicates at different concentrations (for example, 10 µM, 2.5 µM, 0.63 µM, 0.16 µM, 0.04 µM, 0.01 µM test compound). The ratiometric data (i.e., emission 2 divided by emission 1) is used to calculate IC50 values against Ras using GraphPad Prism (GraphPad software). Following this general procedure, samples were tested with or without a subject compound disclosed herein including compounds exemplified in Table 3 to assess their abilities to inhibit K-Ras G12S relative to another mutant (e.g., K-Ras G12D). Signaling output measured in terms of IC50 values can be obtained, a ratio of IC50 against one mutant relative to another mutant can be calculated. For instance, a selective reduction of K-Ras G12S signaling output can be evidenced by a ratio greater than one. In particular, a selective reduction of K-Ras G12S signaling relative to K-Ras G12D signaling is evidenced as the ratio of IC50 (against K-Ras G12D) to IC50 (against K-Ras G12S) is greater than 1. […]

T1 sequence (P01116 1-188 isoform P01116-2 G12S): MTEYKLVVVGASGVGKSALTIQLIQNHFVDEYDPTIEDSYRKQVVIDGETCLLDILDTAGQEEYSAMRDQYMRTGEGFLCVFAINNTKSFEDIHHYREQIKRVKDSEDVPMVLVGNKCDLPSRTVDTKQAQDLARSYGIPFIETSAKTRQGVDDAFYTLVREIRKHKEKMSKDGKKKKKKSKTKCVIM

Regarding `N#Cc1c(N)sc2c(F)ccc(-c3c(Cl)cc4c(O[C@@H]5C[C@H]6CC[C@@H](C5)N6C(=O)n5cncn5)nc(OC[C@@]56CCCN5C[C@H](F)C6)nc4c3F)c12` [Compound A247, 4-(4-(((1R,3s,5S)-8-(1H-1,2,4-triazole-1-carbonyl)-8-azabicyclo[3.2.1]octan-3-yl)oxy)-6-chloro-8-fluoro-2-(((2R,7aS)-2-fluorotetrahydro-1H-pyrrolizin-7 a(5H)-yl)methoxy)quinazolin-7-yl)-2-amino-7-fluorobenzo[b]thiophene-3-carbonitrile], the IC50 (as a rule, the concentration needed to halve the response being measured) in the assay on GP2D cells (GP2d) fell in the range of 1 to 10 µM.
Same read-out and setting: next, `N#Cc1cnn(C(=O)N2C3CCC2CN(c2nc(OC[C@@]45CCCN4C[C@H](F)C5)nc4c(F)c(-c5ccc(F)c6sc(N)c(C#N)c56)ccc24)C3)c1` [Compound A176, 1-(3-(7-(2-amino-3-cyano-7-fluorobenzo[b]thiophen-4-yl)-8-fluoro-2-(((2R,7aS)-2-fluorotetrahydro-1H-pyrrolizin-7a(5H)-yl)methoxy)quinazolin-4-yl)-3,8-diazabicyclo[3.2. 1]octane-8-carbonyl)-1H-pyrazole-4-carbonitrile]: 1 to 10 µM.
On to `C#Cc1c(F)ccc2cc(O)cc(-c3ncc4c(N5CC6CCC(C5)N6C(=O)n5cncn5)nc(OC[C@@]56CCCN5C[C@H](F)C6)nc4c3F)c12` [Compound A234, (3-(7-(8-ethynyl-7-fluoro-3-hydroxynaphthalen-1-yl)-8-fluoro-2-(((2R,7aS)-2-fluorotetrahydro-1H-pyrrolizin-7a(5H)-yl)methoxy)pyrido[4,3-d]pyrimidin-4-yl)-3,8-diazabicyclo[3.2.1]octan-8-yl)(1H-1,2,4-triazol-1-yl)methanone], for which the IC50 in the assay with GP2D cells (GP2D cells (K-Ras G12D)) was at most 1 µM.
Take `C#Cc1c(F)ccc2cc(O)cc(-c3ncc4c(N5CC6CCC(C5)N6C(=O)Nc5ncccn5)nc(OC[C@@]56CCCN5C[C@H](F)C6)nc4c3F)c12` [Compound A131, 3-(7-(8-ethynyl-7-fluoro-3-hydroxynaphthalen-1-yl)-8-fluoro-2-(((2R,7aS)-2-fluorotetrahydro-1H-pyrrolizin-7a(5H)-yl)methoxy)pyrido[4,3-d]pyrimidin-4-yl)-N-(pyrimidin-2-yl)-3,8-diazabicyclo[3.2. 1]octane-8-carboxamide]: the IC50 in the assay on GP2D cells (GP2D cells (K-Ras G12D)) is at most 1 µM.
In the case of `N#Cc1c(N)sc2c(F)ccc(-c3c(Cl)cc4c(N5CC6CCC(C5)N6C(=O)n5ccnc5C#N)nc(OC[C@@]56CCCN5C[C@H](F)C6)nc4c3F)c12` [Compound A220, 1-(3-(7-(2-amino-3-cyano-7-fluorobenzo[b]thiophen-4-yl)-6-chloro-8-fluoro-2-(((2R,7aS)-2-fluorotetrahydro-1H-pyrrolizin-7a(5H)-yl)methoxy)quinazolin-4-yl)-3,8-diazabicyclo[3.2. 1]octane-8-carbonyl)-1H-imidazole-2-carbonitrile], the IC50 in the assay with GP2D cells (GP2D cells (K-Ras G12D)) was at most 1 µM.
On the same count and under the same terms, the figure for `N#Cc1c(N)sc2c(F)ccc(-c3c(Cl)cc4c(N5CC6CCC(C5)N6C(=O)n5ncnc5C#N)nc(OC[C@@]56CCCN5C[C@H](F)C6)nc4c3F)c12` [Compound A246] is at most 1 µM.
For the molecule `C[C@H](Oc1nc(N2CCCCC3(CN(C(=O)n4cncn4)C3)C2)c2cc(Cl)c(-c3ccc(F)c4sc(N)c(C#N)c34)c(F)c2n1)[C@@H]1CCCN1C` [Compound A167, 4-(4-(2-(1H-1,2,4-triazole-1-carbonyl)-2,6-diazaspiro[3.6]decan-6-yl)-6-chloro-8-fluoro-2-((S)-1-((S)-1-methylpyrrolidin-2-yl)ethoxy)quinazolin-7-yl)-2-amino-7-fluorobenzo[b]thiophene-3-carbonitrile], the “Ratio of IC50 KRAS G12D vs. IC50 KRAS G12S” value (from here on “Ratio”) at K-Ras G12S is “A (A: indicates that the ratio of IC50 against KrasG12D vs. IC50 against KrasG12S is 1-fold or greater)”.
For `N#Cc1c(N)sc2c(F)ccc(-c3c(Cl)cc4c(N5CCN(C(=O)Nc6nccs6)CC(O)C5)nc(OC[C@@]56CCCN5C[C@H](F)C6)nc4c3F)c12` (stereo partly drawn) [Compound A164, 4-(7-(2-amino-3-cyano-7-fluorobenzo[b]thiophen-4-yl)-6-chloro-8-fluoro-2-(((2R,7aS)-2-fluorotetrahydro-1H-pyrrolizin-7a(5H)-yl)methoxy)quinazolin-4-yl)-6-hydroxy-N-(thiazol-2-yl)-1,4-diazepane-1-carboxamide], the “Ratio” value on K-Ras G12S is listed as “A (A: indicates that the ratio of IC50 against KrasG12D vs. IC50 against KrasG12S is 1-fold or greater)”.
Consider `C#Cc1c(F)ccc2cccc(-c3ccc4c(N5CC6CCC(C5)N6C(=O)n5cncn5)nc(OC[C@@]56CCCN5C[C@H](F)C6)nc4c3F)c12` [Compound A229, (3-(7-(8-ethynyl-7-fluoronaphthalen-1-yl)-8-fluoro-2-(((2R,7aS)-2-fluorotetrahydro-1H-pyrrolizin-7a(5H)-yl)methoxy)quinazolin-4-yl)-3,8-diazabicyclo[3.2.1]octan-8-yl)(1H-1,2,4-triazol-1-yl)methanone], for which the concentration for half-maximal inhibition (IC50) in the assay with GP2D cells (GP2d) is 1 to 10 µM.
For `Cc1cnn(C(=O)N2C3CCC2CN(c2nc(OC[C@@]45CCCN4C[C@H](F)C5)nc4c(F)c(-c5ccc(F)c6sc(N)nc56)c(Cl)cc24)C3)c1` [Compound A113, (3-(7-(2-amino-7-fluorobenzo[d]thiazol-4-yl)-6-chloro-8-fluoro-2-(((2R,7aS)-2-fluorotetrahydro-1H-pyrrolizin-7a(5H)-yl)methoxy)quinazolin-4-yl)-3,8-diazabicyclo[3.2.1]octan-8-yl)(4-methyl-1H-pyrazol-1-yl)methanone], the “Ratio” value on K-Ras G12S is “A (A: indicates that the ratio of IC50 against KrasG12D vs. IC50 against KrasG12S is 1-fold or greater)”.
Same read-out and setting: next, `Nc1nc2c(-c3c(Cl)cc4c(N5CCN(C6CN(C(=O)n7cncn7)C6)CC5)nc(OC[C@@]56CCCN5C[C@H](F)C6)nc4c3F)ccc(F)c2s1` [Compound A267, (3-(4-(7-(2-amino-7-fluorobenzo[d]thiazol-4-yl)-6-chloro-8-fluoro-2-(((2R,7aS)-2-fluorotetrahydro-1H-pyrrolizin-7a(5H)-yl)methoxy)quinazolm-4-yl)piperazin-1-yl)azetidin-1-yl)(1H-1,2,4-triazol-1-yl)methanone]: “A (A: indicates that the ratio of IC50 against KrasG12D vs. IC50 against KrasG12S is 1-fold or greater)”; `N#Cc1ccn(C(=O)N2CC3CCC(C2)N3c2nc(OC[C@@]34CCCN3C[C@H](F)C4)nc3c(F)c(-c4ccc(F)c5sc(N)nc45)c(Cl)cc23)c1` [Compound A290, 1-(8-(7-(2-amino-7-fluorobenzo[d]thiazol-4-yl)-6-chloro-8-fluoro-2-(((2R,7aS)-2-fluorotetrahydro-1H-pyrrolizin-7a(5H)-yl)methoxy)quinazolin-4-yl)-3,8-diazabicyclo[3.2. 1]octane-3-carbonyl)-1H-pyrrole-3-carbonitrile]: “A (A: indicates that the ratio of IC50 against KrasG12D vs. IC50 against KrasG12S is 1-fold or greater)”.

For the origin of these results see patent EP4389751A1, “HETEROCYCLIC COMPOUNDS AND USES THEREOF” (Kumquat Biosciences Inc., priority 2021, dated 2024).
